Source: patent US10253069B2, “Compositions and methods for regulating arterial tone” (University of Virginia Patent Foundation, priority 2012, dated 2019)

Tests used:
[1] = test system: eNOS phosphorylation on serine 1177; experiment: Western blot of pS1177 eNOS in coronary endothelial cells; format: cell-based, human; conditions: 5 μmol/L peptide, 20 minutes
Protocol: Primary coronary endothelial cells (Lonza) were cultured on plastic 6-well dishes as previously described^9. For studies involving basal NO release, endothelial cells were incubated with 5 μmol/L of Scr X or Hb α X for 20 minutes followed by medium collection and nitrite measurements as described below. For bradykinin studies, coronary endothelial cells were grown to confluence followed by serum starvation overnight in a cocktail of Lonza EGM-2 medium supplemented with EGM-2 bullet kit and Opti MEM reduced growth medium using a ratio of 1:9 respectively. The next day, endothelial cells were incubated with Scr X or Hb α X peptide for 20 minutes followed by the addition of 10 μM bradykinin (Sigma) for 5 minutes followed by medium collection for nitrite measurements as described below.
Endothelial cells were harvested in lysis buffer, sonicated and subjected to electrophoresis using 10% Bis-Tris gels (Invitrogen) as previously described^13. Proteins were transferred to nitrocellulose, incubated with phospho-eNOS S1177 (BD Biosciences) or total eNOS (Sigma) and visualized and quantitated using Li-Cor Odyssey Imager as previously described^14.

thoracodorsal arteries [2] = experiment: Pressure myography on thoracodorsal arteries, phenylephrine dose response with peptides; parameters: species or system mouse
[3] = Blood pressure by radio telemetry, C57BL/6 mice; format: in vivo, mouse; conditions: single bolus 0.125 mg/kg intraperitoneal
Protocol: Blood pressure was measured in conscious wildtype or eNOS^−/− mice under unrestrained conditions using implanted radio telemetry units. Continuous blood pressure measurements were recorded using Dataquest A.R.T. 20 software (DSI). To do so, mice were anesthetized with isoflurane and the catheters (TA11PA-C10, Data Sciences International (DSI)) were implanted in the left carotid artery. The catheter was tunneled through to the radiotransmitter, which was placed in a subcutaneous pouch along the flank. Mice were allowed to recover for seven days after surgery to regain normal circadian rhythms before arterial pressure measurements and experiments were initiated. Thirty minutes prior to peptide injection, continuous blood pressure readings were recorded. Then, a bolus injection of Scr X or Hb α X peptide, or saline was administered via an intraperitoneal injection at 0.125 mg/kg. One hour post-injection, blood pressure was recorded for a 30 minute duration. The change in blood pressure was calculated by subtracting the average pre injection blood pressure from the average post-injection blood pressure.

[4] = test system: thoracodorsal arteries from eNOS−/− animals; experiment: Pressure myography on thoracodorsal arteries from eNOS−/− mice; parameters: species or system mouse
thoracodorsal arteries [5] = experiment: cGMP assay on thoracodorsal arteries; parameters: species or system mouse
Protocol: Isolated thoracodorsal arteries were cannulated and pressurized to 80 mmHg as previously described^13. Arteries were perfused with 5 μM Scr X or Hb α X with addition of 0.5 mmol/L of the phosphodiesterase inhibitor 3-isobutyl-1-methylxanthine (IBMX) (all conditions) or 100 μmol/L the nitric oxide synthase inhibitor L-NG-Nitroarginine Methyl Ester (L-NAME) for 20 minutes. Arteries were then stimulated with 50 μM phenylephrine for 10 minutes and immediately immersed in lysis buffer provided in the cGMP XP assay Kit (Cell Signaling) according to manufactures instructions. Briefly, a competition enzyme-linked immunoassay was used to generate a standard curve of known cGMP concentrations followed by calculating cGMP concentrations of experimental samples. The cGMP concentration in experimental samples was normalized to total protein concentration.

abdominal aortic rings = experiment: Abdominal aorta ring assay; parameters: species or system mouse; conditions: compared to untreated aortas or aortas treated with Scr X
Protocol: Abdominal aortas were isolated, cut into 2 mm wide rings and mounted on a DMT myograph system with low bath volumes as previously described^16. Briefly, rings were stretched at 1.2× resting length in Krebs solution and allowed to equilibrate for 30 min at 37° C. prior to depolarization with […] K^+ [i]. Following the high K^+ contraction, rings were returned to Krebs solution and incubated with 5 μmol/L Scr X or Hb α X peptide for 20 minutes. Cumulative concentrations of phenylephrine (PE) (10^−10-10^−4 mol/L) were added to the rings and the magnitude of the tension response measured in milli-newtons.

Peptide LSFPTTKTYF (SEQ ID NO:2), first ten amino acids of the Hb α sequence, with HIV-tat tag YGRKKRRQRRR at the N-terminus [Hb α X]
Basal eNOS phosphorylation on serine 1177 [1]: no differences | Constriction in phenylephrine dose response curves (thoracodorsal arteries [2]; compared to untreated arteries): significant decrease in constriction | Emax, vascular reactivity dose response curves (thoracodorsal arteries [2]; phenylephrine dose response, thoracodorsal arteries perfused with peptide): 68.0 ± 5.3 % initial diameter | Constriction in phenylephrine dose response curves with L-NAME (thoracodorsal arteries [2]; plus L-NAME 100 μmol/L): reversed | Systolic, diastolic and mean arterial blood pressure [3]: significant decrease | Magnitude of phenylephrine induced constriction [4]: no alteration | cGMP accumulation with L-NAME (thoracodorsal arteries [5]; phenylephrine stimulation plus L-NAME): reversed | cGMP accumulation (thoracodorsal arteries [5]; phenylephrine stimulation, compared to Scr X peptide): significant increase | Phenylephrine dose response curves (abdominal aortic rings): no significant change
